Test results taken from patent publication US5039665A, “Use of fructose-1,6-diphosphate for treating myocardial infarction” (priority 1990, dated 1991).

How the values were obtained:
erythrocytes = assay: incubation of erythrocytes: ATP and 2-3 DPG content; assay type: cell-based; conditions: equimolar, same conditions
Excerpt: (§1) To allow for a broader and more complete interpretation of the results, a small paragraph will be devoted to the ability of FDP to cross the cellular membranes.

rabbit ileum = assay: force of contraction of isolated rabbit ileum; conditions: added to perfusate
Excerpt: as §1

heart preparation = conditions: infusion of Locke's solution plus sugar; cited from earlier work

Structure (SMILES) | ATP content in the erythrocytes (erythrocytes) | force of contraction (rabbit ileum) | amplitude and frequency of heart beats, lactic acid, pH and potassium during recovery (heart preparation)
O=C(CO)[C@@H](O)[C@H](O)[C@H](O)COP(=O)(O)O [fructose-6-phosphate] | failed to increase the ATP content | fail to produce the same effect | 
O=C[C@H](O)[C@@H](O)[C@H](O)[C@H](O)COP(=O)(O)O [glucose-6-phosphate] | failed to increase the ATP content | fail to produce the same effect | 
OC[C@H]1O[C@@](CO)(O[C@H]2O[C@H](CO)[C@@H](O)[C@H](O)[C@H]2O)[C@@H](O)[C@@H]1O [sucrose] |  |  | no significant difference
O=C(CO)[C@@H](O)[C@H](O)[C@H](O)CO [fructose] | failed to increase the ATP content | fail to produce the same effect | no significant difference
O=P(O)(O)O [inorganic phosphate] | failed to increase the ATP content | fail to produce the same effect | 
